Patent US11795460B2, “Compositions and methods for TTR gene editing and treating ATTR amyloidosis” (Intellia Therapeutics, Inc., priority 2017, dated 2023)

What was measured:
TTR [1] = experiment: TTR editing in primary human hepatocytes transfected with Spy Cas9 mRNA and dgRNAs (Table 9); type: cell-based; settings: dgRNA co-transfected with Spy Cas9 mRNA (SEQ ID NO:2)
Summary of the method: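 PHH sequentially lipofected with Spy Cas9 mRNA (100 ng), then crRNA plus tracrRNA (25 nM each) dual-guide lipoplex. Cells harvested 24, 48 or 72 h post-transfection; TTR target amplicons sequenced on Illumina MiSeq, editing given as percent reads with indels or substitutions over total reads.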

TTR [2] = experiment: TTR editing in HepG2 cells transfected with Spy Cas9 mRNA and dgRNAs (Table 6); type: cell-based, human; settings: HepG2 cells co-transfected with Spy Cas9 mRNA (SEQ ID NO:2) and dgRNAs
Summary of the method: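 HepG2 cells were transfected sequentially by lipofection with Spy Cas9 mRNA (100 ng), then crRNA plus tracer RNA (25 nM each), and harvested at 24, 48 or 72 h. Editing was measured by amplicon NGS at the TTR target site as the fraction of reads with indels or substitutions.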

TTR [3] = experiment: TTR editing in primary human hepatocytes electroporated with Spy Cas9 protein loaded with dgRNAs (Table 7); type: cell-based; settings: dgRNA electroporated with Spy Cas9 protein (RNP)
Summary of the method: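 Primary human or cynomolgus hepatocytes electroporated (Lonza P3 buffer, program EX-147) with Spy Cas9 RNP carrying pre-annealed crRNA/trRNA dual guides. Genomic DNA harvested at 24, 48 or 72 h; target amplicons sequenced by Illumina MiSeq. Percent editing = reads with indels or substitutions over total reads.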

TTR [4] = experiment: TTR editing in HEK293_Cas9 cells transfected with dgRNAs (Table 4); type: cell-based, human; settings: HEK293_Cas9 cells (constitutively express Spy Cas9) transfected with dgRNAs
Summary of the method: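 Spy Cas9-expressing HEK293 cells were transfected by lipofection with crRNA (25 nM) plus trRNA (25 nM) and harvested at 24, 48 or 72 h. The target site was PCR-amplified and sequenced on MiSeq. Percent editing is reads with indels or substitutions over total reads.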

| Sequence | Avg % Deletion (TTR [1]) | Avg % Edit (TTR [1]) | Avg % Insert (TTR [1]) | Avg % Deletion (TTR [2]) | Avg % Edit (TTR [2]) | Avg % Insert (TTR [2]) | Avg % Deletion (TTR [3]) | Avg % Edit (TTR [3]) | Avg % Insert (TTR [3]) | Avg % Deletion (TTR [4]) | Avg % Edit (TTR [4]) | Avg % Insert (TTR [4]) |
| --- | --- | --- | --- | --- | --- | --- | --- | --- | --- | --- | --- | --- |
| CUGAGGAGGAAUUUGUAGAA (tested as dual guide RNA, chemistry not given here) [CR003364] | 8.93% | 15.63% | 6.73% | 20.85% | 51.88% | 31.03% | 6.53% | 23.30% | 16.93% | 16.48% | 35.65% | 19.17% |
| CUGCUCCUCCUCUGCCUUGC (tested as dual guide RNA, chemistry not given here) [CR003335] | 3.40% | 36.43% | 33.03% | 4.23% | 37.19% | 32.96% | 2.50% | 72.20% | 69.70% | 21.87% | 26.59% | 4.73% |
| CUGGUAUUUGUGUCUGAGGC (tested as dual guide RNA, chemistry not given here) [CR003341] | 9.07% | 15.83% | 6.80% | 5.66% | 15.60% | 9.94% | 4.40% | 11.43% | 7.03% | 13.31% | 20.04% | 6.73% |
| CUUCUCUACACCCAGGGCAC (tested as dual guide RNA, chemistry not given here) [CR003342] | 1.50% | 22.10% | 20.60% | 0.28% | 11.06% | 10.78% | 0.90% | 32.77% | 31.87% | 35.38% | 36.57% | 1.19% |
| GAAAGGCUGCUGAUGACACC (tested as dual guide RNA, chemistry not given here) [CR003352] | 5.07% | 16.80% | 11.73% | 4.77% | 44.28% | 39.51% | 4.30% | 29.83% | 25.63% | 22.99% | 27.90% | 4.91% |
| GACGACAGCCGUGGUGGAAU (tested as dual guide RNA, chemistry not given here) [CR003388] | 1.17% | 12.97% | 11.87% | 1.56% | 9.33% | 7.76% | 0.27% | 5.70% | 5.47% | 17.82% | 19.23% | 1.41% |
| GCAACUUACCCAGAGGCAAA (tested as dual guide RNA, chemistry not given here) [CR003356] | 2.67% | 7.27% | 4.70% | 3.72% | 9.39% | 5.67% | 2.23% | 9.97% | 7.80% | 22.19% | 32.21% | 10.03% |
| GCAGGGCGGCAAUGGUGUAG (tested as dual guide RNA, chemistry not given here) [CR003380] | 0.47% | 2.93% | 2.47% | 2.30% | 17.08% | 14.78% | 0.10% | 5.37% | 5.27% | 44.00% | 47.64% | 3.64% |
| GCAUGGGCUCACAACUGAGG (tested as dual guide RNA, chemistry not given here) [CR003362] | 0.47% | 6.60% | 6.17% | 0.94% | 17.44% | 16.50% | 0.20% | 7.03% | 6.87% | 8.41% | 9.90% | 1.48% |
| GCCGUGGUGGAAUAGGAGUA (tested as dual guide RNA, chemistry not given here) [CR003387] | 0.03% | 7.87% | 7.80% | 0.12% | 1.39% | 1.27% | 0.20% | 1.87% | 1.70% | 16.92% | 24.68% | 7.75% |
| GCGGCAAUGGUGUAGCGGCG (tested as dual guide RNA, chemistry not given here) [CR003377] | 0.57% | 17.53% | 16.97% | 1.02% | 16.30% | 15.29% | 0.10% | 10.23% | 10.13% | 21.99% | 24.70% | 2.71% |
| GCUGCAUGGGCUCACAACUG (tested as dual guide RNA, chemistry not given here) [CR003361] | 0.87% | 3.53% | 2.73% | 2.58% | 14.05% | 11.47% | 0.37% | 4.10% | 3.73% | 25.78% | 34.45% | 8.66% |
| GGAGUAGGGGCUCAGCAGGG (tested as dual guide RNA, chemistry not given here) [CR003382] | 0.00% | 0.97% | 0.97% | 0.15% | 1.73% | 1.58% | 0.43% | 8.40% | 8.10% | 25.49% | 29.95% | 4.46% |
| GGCUGUCGUCACCAAUCCCA (tested as dual guide RNA, chemistry not given here) [CR003391] | 0.30% | 15.47% | 15.20% | 0.50% | 48.78% | 48.28% | 0.27% | 29.77% | 29.57% | 44.19% | 44.81% | 0.61% |
| GGGAUUGGUGACGACAGCCG (tested as dual guide RNA, chemistry not given here) [CR003390] | 1.60% | 20.23% | 18.73% | 2.44% | 24.88% | 22.44% | 0.23% | 15.97% | 15.80% | 23.71% | 28.02% | 4.31% |
| GUGAGUCUGGAGAGCUGCAU (tested as dual guide RNA, chemistry not given here) [CR003360] | 0.90% | 14.90% | 14.13% | 2.38% | 41.31% | 38.94% | 0.63% | 32.23% | 31.67% | 19.98% | 22.68% | 2.70% |
| UACUCACCUCUGCAUGCUCA (tested as dual guide RNA, chemistry not given here) [CR003372] | 0.63% | 1.77% | 1.13% | 2.42% | 14.57% | 12.14% | 1.77% | 12.17% | 10.47% | 11.99% | 15.24% | 3.25% |
